The assay deals with human endothelial lipase (EL) (Homo sapiens (Human), UniProt Q9Y5X9). The experiment in a line: Human endothelial lipase (EL) inhibitory activity using human HDL. The assay is classed as biochemical. As to conditions: human HDL 2 mg/ml, 4-hour reaction at 37° C., NEFA readout. The procedure: Evaluation Method of Human Endothelial Lipase (EL) Inhibitory Activity Using Human High-Density Lipoprotein (HDL)
Chain of human endothelial lipase (EL) (Q9Y5X9 21-500): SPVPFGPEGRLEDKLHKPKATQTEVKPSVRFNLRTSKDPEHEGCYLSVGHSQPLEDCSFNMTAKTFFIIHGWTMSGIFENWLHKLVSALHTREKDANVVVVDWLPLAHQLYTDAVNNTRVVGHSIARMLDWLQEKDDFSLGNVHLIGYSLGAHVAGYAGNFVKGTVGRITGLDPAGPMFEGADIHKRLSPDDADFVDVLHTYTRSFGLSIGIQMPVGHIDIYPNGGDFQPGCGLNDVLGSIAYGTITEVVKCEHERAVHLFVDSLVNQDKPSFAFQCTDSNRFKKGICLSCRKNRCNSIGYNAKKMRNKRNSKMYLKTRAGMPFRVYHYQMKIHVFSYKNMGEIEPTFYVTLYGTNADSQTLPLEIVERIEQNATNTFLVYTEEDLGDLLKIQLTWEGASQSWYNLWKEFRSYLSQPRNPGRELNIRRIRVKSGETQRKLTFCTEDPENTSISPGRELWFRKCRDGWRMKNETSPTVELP
After the present compound dissolved in DMSO was added to become 0.5% DMSO to the reaction buffer consisting of 20 mM tris hydrochloric acid (pH7.4), bovine serum albumin (0.5%), calcium chloride (4 mM), sodium chloride (150 mM) and human HDL (2 mg/ml), the EL enzyme was added (total volume was 20 μl).
After 4-hour reaction at 37° C., non-esterified fatty acid (NEFA) generated from HDL by EL was measured with a commercially available assay kit and the amount of NEFA was used as an index of enzyme activity.
Regarding `O=C(Cc1nc2ccc(-c3ccccc3)cc2s1)NCc1cccc(C(=O)O)c1` [II-1-1], the IC50 (commonly the concentration that inhibits the measured activity by half) amounted to 230 nM. That is a sub-micromolar value.
As for `NS(=O)(=O)c1cccc(CNC(=O)Cc2nc3ccc(-c4ccccc4)cc3s2)c1` [II-1-11], the figure is 560 nM.
Consider `CN(C)C(=O)c1cccc(CNC(=O)Cc2nc3ccc(-c4ccccc4)cc3s2)c1` [II-1-17], for which the IC50 came out at 1300 nM.
Take `COCC(O)CNC(=O)Cc1nc2ccc(-c3ccccc3)cc2s1` (stereo not drawn) [II-1-190]: half-maximal inhibition (IC50) required 2100 nM. This IC50 is about 1.6-fold higher than that of the compound before.
Under `O=C(Cc1nc2cc(-c3cccc(C(F)(F)F)c3)ccc2s1)NCc1cccc(C(=O)O)c1` [II-1-202] stands 290 nM.
As for `O=C(Cc1nc2ccc(-c3ccccc3)cc2s1)NCc1nc(C(=O)O)cs1` [II-1-246], the figure is 280 nM; as for `N#CCNC(=O)CNC(=O)Cc1nc2ccc(-c3ccccc3)cc2s1` [II-2-1], 110 nM; as for `N#CC1(NC(=O)CNC(=O)Cc2nc3ccc(-c4ccccc4)cc3s2)CC1` [II-2-67], 29 nM.
`CC(O)CNC(=O)CNC(=O)Cc1nc2ccc(-c3ccccc3)cc2s1` (stereo not drawn) [II-2-131] showed an IC50 of 92 nM.
As for `COc1cc2nc(CC(=O)NCC(=O)NCC#N)sc2cc1-c1ccccc1` [II-2-144], the figure is 29 nM; as for `C#CCNC(=O)CNC(=O)Cc1nc2ccc(-c3ccccc3)cc2s1` [II-2-211], 32 nM; as for `N#CCNC(=O)CNC(=O)Cc1nc2cc(-c3ccc(OC(F)(F)F)cc3)ccc2s1` [II-2-291], 56 nM.

The values are drawn from patent publication US8957219B2, “Acetic acid amide derivative having inhibitory activity on endothelial lipase” (Shionogi & Co., Ltd., priority 2008, dated 2015).
